Source: patent publication US10888536B1, “Method of improvement of insulin sensitivity in obese patients” (FOOYIN UNIVERSITY, priority 2019, dated 2021)

How the values were obtained:
[1] = test system: mouse macrophage (J774A.1 cell line); test: ATP level in J774A.1 cells by ATP luminometer (Trial A); assay type: cell-based
Procedure: To evaluate propanamide can increase of ATP synthesis, mouse macrophage (J774A.1 cell line) was used as the cell model. The J774A.1 cells without treatment were used as group A0. ATP level in the J774A.1 cells of groups A0-A5 were analyzed by ATP luminometer, respectively. The unit of ATP level is relative light unit (R.L.U).

[2] = test system: TNF-α; test: TNF-α level in medium of J774A.1 cells with or without LPS (Trial B); assay type: cell-based, mouse
Procedure: The increase of cellular ATP can change the activity of macrophage, inhibiting the production of the proinflammatory cytokine, TNF-α, as well as the inflammation. After 15 minutes, 200 ng/ml lipopolysaccharide (LPS) was used to induce the inflammation in the J774A.1 cells of groups B1, B3 and B5. The medium of the J774A.1 cells was collected, and the TNF-α level in the medium was detected by a commercial kit.

[3] = test system: obese mice; test: Fasting blood glucose in high fat diet obese mice (Trial C); assay type: in vivo, Male ICR mice; conditions: high fat diet containing 3 ppm propanamide for 2 weeks (group C2), fasted 18 hours (FIG. 5)
Description: Male ICR mice were used as the animal model in Trial (C). […] The obese mice of group C1 were then fed by the high fat diet for another 2 weeks, while the obese mice of group C2 were fed by the high fat diet containing 3 ppm propanamide for further 2 weeks. The normal mice of group C0 were fed by normal diet for 19 weeks. After 19 weeks, the mice of groups C0-C2 were sacrificed, and the effect of propanamide on reducing the accumulation of visceral fat was estimated by weight of epididymal fat (% of body weight). Before being sacrificed, the mice of groups C0-C2 were fasted for 18 hours, and the levels of fasting blood glucose of the mice were measured. Referring to FIG. 5, the levels of fasting blood glucose of the obese mice fed by the high fat diet (group C1) were higher than that of the normal mice fed by the normal diet (group C0).

[4] = test system: obese rats; test: Oral glucose tolerance test (OGTT) in high fat diet obese rats (Trial D); assay type: in vivo, Wistar male rats
Procedure: (§1) Wistar male rats were used as the animal model in Trial (D). […] The obese rats of group D1 were then fed by the high fat diet without propanamide for another 4 weeks (total 23 weeks), while the obese rats of group D2 and D3 were fed by the high fat diet respectively containing 1 ppm and 3 ppm propanamide for further 4 weeks, The normal rats of group D0 were fed by normal diet for 23 weeks (total 23 weeks). At the 22th week, the oral glucose tolerance tests (OGTT) were performed as following: the rats of groups D0-D3 were fasted for 18 hours, and then were administered a 20% glucose solution (2 g glucose/kg body weight) by gavage. Blood samples were collected and the glucose concentrations were detected at 0, 30, 60, 90, and 120 minutes after glucose loading.

[5] = test system: obese rats; test: Fasting serum insulin in high fat diet obese rats (Trial D); assay type: in vivo, Wistar male rats; conditions: 1 and 3 ppm propanamide in high fat diet for 4 weeks (groups D2 and D3), fasted 18 hours, 23rd week (FIG. 7)
Procedure: as §1, with “loading. At 23th week, the rats of groups D0-D3 were fasted for 18 hours before scarification, and the serum were analyzed the level of insulin.” for “loading.”

Structure (SMILES): CCC(N)=O [propanamide]
- dose dependence of ATP production ([1]; concentration below 4 μM, 6 hours (FIG. 2)): dose-dependent response
- ATP level in the J774A.1 cells ([1]; propanamide 0.04-400 μM, 6 hours, vs untreated cells (FIG. 2)): effectively elevate ATP level
- production of TNF-α not induced by LPS ([2]; propanamide 4 and 40 μM (groups B2 and B4), no LPS (FIG. 3)): also inhibit the production of TNF-α
- production of TNF-α induced by LPS ([2]; propanamide 4 and 40 μM (groups B3 and B5), 200 ng/ml LPS after 15 minutes (FIG. 3)): effectively inhibit the production of TNF-α induced by LPS
- levels of fasting blood glucose [3]: decreased significantly
- area under curve (AUC) of blood glucose in OGTT ([4]; 1 and 3 ppm propanamide in high fat diet (groups D2 and D3) (FIG. 6b)): decreased significantly
- blood glucose during OGTT vs group D1 ([4]; 1 ppm and 3 ppm propanamide in high fat diet (groups D2 and D3), 120 minutes after glucose loading (FIG. 6a)): significantly lower
- blood glucose in untreated obese rats (group D1) relative to group D2 during OGTT ([4]; 1 ppm propanamide in high fat diet (group D2), 90 minutes to 120 minutes after glucose loading (FIG. 6a)): evidently higher
- fasting serum insulin [5]: reduced to normal level
